Values quoted from earlier work as cited in US20220175758A1, “COMPOSITIONS AND METHODS TO TREAT NON-ALCOHOLIC FATTY LIVER DISEASES (NAFLD)” (Coherus Biosciences, Inc., priority 2019, published 2022).

Details: monotherapy

SMILES: Cc1cc(F)c(C(=O)Nc2cccc(-c3nncn3C(C)C)n2)cc1-n1cnc(C2CC2)c1 [selonsertib]
- primary endpoint of the STELLAR-4 phase 3 clinical trial: failed to meet the primary endpoint
